From patent US6310086A, “Indole derivatives and medicinal compositions containing the same” (Kissei Pharmaceutical Co., Ltd., priority 1998, dated 2001)
Structures can show the parent of a compound that is named as a salt. Where two headings read alike, the source gives them in different places.

Key:
[1] = Test for Measuring Drug Concentration in Aqueous Humor (2), after instillation of Compound C hydrochloride; assay type: in vivo, rabbit (Japanese White); conditions: rabbit eye
Experimental: To the collected aqueous humor (0.1 ml) was added internal standard [(R)-3-chloro-1-(3-hydroxypropyl)-5-[2-[[2-[2-(2,2,2-trifluoroethoxy)phenoxy]ethyl]amino]propyl]-1H-indole-7-carboxamide](10 ng), and 0.1M phosphate buffer (pH7.6) and sodium chloride (about 1 g) were added to the mixture. The resulting mixture was extracted with diethyl ether (5 ml), and the diethyl ether layer was concentrated under a stream of nitrogen.
Mobile phase: acetonitrile/0.1% phosphoric acid+2 mM sodium laurylsulfate=1/1
Fluorometry: excitation wave length 270 nm, emission wave length 435 nm

[2] = Test for Rate of Hydrolysis by Endogenous Enzyme in whole blood; assay type: in vitro ADME, rat (male Wistar); conditions: for metabolised at 0.25 h: read-out: Decomposition rate, 15 minutes after; for metabolised at 1 h: read-out: Decomposition rate, 1 hour after; for metabolised at 2 h: read-out: Decomposition rate, 2 hours after
Experimental: (§1) (1 μg), and the mixture was incubated at 37° C. After 15 minutes, 30 minutes, 1 hour and 2 hours, 0.7M aqueous sodium fluoride solution (0.5 ml) as an esterase inhibitor was added to each sample to stop the reaction.
(§2) Analytical column: Inertsil ODS-3 (4.6×250 mm)
(§3) Mobile phase: acetonitrile/20 mM acetate buffer (pH 5.0)=40/60 Column temperature: 50° C.
(§4) Fluorometry: excitation wavelength 270 nm, emission wavelength 435 nm

[3] = target: T1, α1-adrenoceptor (Rattus norvegicus, UniProt P43140); assay: Test for Measuring α1-adrenoceptor Blocking Effect (inhibition of norepinephrine contraction of isolated ductus deferens); assay type: cell-based, rat (male Wistar); conditions: 10 μM norepinephrine, propranorol 1 μM and yohimbine 0.1 μM
T1 construct: Ductus deferenses (about 1.5 cm from testis side) were isolated; from tissue; host or cells: isolated ductus deferens (about 1.5 cm from testis side) of male Wistar rats, organ bath
T1 sequence (P43140 1-466): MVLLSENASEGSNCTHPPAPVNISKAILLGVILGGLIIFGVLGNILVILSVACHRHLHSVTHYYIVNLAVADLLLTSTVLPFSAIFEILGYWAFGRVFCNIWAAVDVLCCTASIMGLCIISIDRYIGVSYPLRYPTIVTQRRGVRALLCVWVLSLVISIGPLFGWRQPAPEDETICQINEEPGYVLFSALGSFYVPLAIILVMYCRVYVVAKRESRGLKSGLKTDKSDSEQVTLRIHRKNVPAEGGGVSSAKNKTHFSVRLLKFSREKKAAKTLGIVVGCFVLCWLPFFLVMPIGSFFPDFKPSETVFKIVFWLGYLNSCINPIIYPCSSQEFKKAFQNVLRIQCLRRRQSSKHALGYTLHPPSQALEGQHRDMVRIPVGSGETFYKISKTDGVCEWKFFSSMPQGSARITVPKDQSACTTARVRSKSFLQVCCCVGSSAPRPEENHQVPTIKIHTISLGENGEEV
Experimental: Ductus deferenses (about 1.5 cm from testis side) were isolated frommaleWistar rats (about 300 to 350 g in body weight). […] A solution of a mixture containing propranorol and yohimbine (final concentration: propranorol 1 μM and yohimbine 0.1 μM) was added into the Magnus bath. After 30 minutes, norepinephrine at the final concentration of 10 μM was added into the Magnus bath until the maximum contraction was obtained, and each preparation was washed. This procedure was repeated several times until the heights of contraction were stable. Each preparation was pre-treated with a solution containing the test compound before 30 minutes, and the contractile responses by treatment of 10 μM norepinephrine were measured. Contraction of each preparation without pre-treatment of the test compound was expressed as 100%.

[4] = test system: male SD rats; assay: Acute Toxicity Test (oral); assay type: in vivo, rat (SD); conditions: 1000 mg/kg
Experimental: Male SD rats of 7 weeks age (n=5; 190-210 g in body weight) were fasted for 18 hours. (R)-3-[7-Carbamoyl-5-[2-[[2-(2-ethoxyphenoxy)ethyl]amino]propyl]-1H-indol- 1-yl]propyl pivalate hydrochloride which was suspended in 0.5% aqueous methylcellulose solution at a concentration of 100 mg/ml was orally administered to the rats at a dose of 1000 mg/kg.

[5] = test system: Endogenous Enzyme; assay: Test for Rate of Hydrolysis by Endogenous Enzyme in whole blood; assay type: in vitro ADME, rat (male Wistar); conditions: blood, 2 hours
Experimental: as §1, §2, §3, §4

[6] = Stability Test in aqueous solution; assay type: physicochemical; conditions: pH 5, decomposed into Compound A
Experimental: The test compounds were dissolved in 0. 1M acetate buffer (pH 5.0) to prepare 0.1% solutions. Each 0.1% solution was allowed to stand in the dark for 28 days at 40° C., 50° C., 60° C. and 70° C., respectively.

[7] = rat whole blood, 37° C., 1 μg in 0.5 ml
[8] = rat whole blood, 37° C., 1 μg in 0.5 ml, read-out: Decomposition rate, 30 minutes after

metabolised at 0.5 h ([2]; blood, 30 minutes) [%] | metabolised at 0.25 h [2, 7] [%] | metabolised at 0.5 h [2, 8] [%] | metabolised at 1 h [2, 7] [%] | metabolised at 2 h [2, 7] [%] | Structure (SMILES) | further results
– | 0.6 | 1.6 | 3.2 | 3.7 | C[C@H](Cc1cc(C(N)=O)c2c(ccn2CCCOC(=O)C(C)(C)c2ccccc2)c1)NCCOc1ccccc1OCC(F)(F)F [Compound c] | –
~6 | – | – | – | – | CCC(C)(C)C(=O)OCCCn1ccc2cc(C[C@@H](C)NCCOc3ccccc3OCC(F)(F)F)cc(C(N)=O)c21 [Compound d, (R)-3-[7-Carbamoyl-5-[2-[[2-[2-(2,2,2-trifluoroethoxy)-phenoxy]ethyl]amino]propyl]-1H-indol-1-yl]propyl 2,2-Dimethylbutyrate] | –
~67 | – | – | – | – | C[C@H](Cc1cc(C(N)=O)c2c(ccn2CCCOC(=O)C(C)(C)C)c1)NCCOc1ccccc1OCC(F)(F)F [Compound D, (R)-3-[7-Carbamoyl-5-[2-[[2-[2-(2,2,2-trifluoroethoxy)-phenoxy]ethyl]amino]propyl]-1H-indol-1-yl]propyl Pivalate] | conversion into Compound A after 2 hours [5]: almost Compound A after 2 hours; degraded ([6]; 40° C., about 1 month at 40° C.): ~0.1%; degraded ([6]; 70° C., about 1 month at 70° C.): ~1.1%
– | 2.1 | 5.6 | 8.4 | 21.7 | CCC(C)(C)C(=O)OCCCn1ccc2cc(C[C@@H](C)NCCOc3ccccc3OCC(F)(F)F)cc(C(N)=O)c21 [Compound d] | –

The next lines start with the compound.

Structure (SMILES) | metabolised at 0.5 h ([2]; blood, 30 minutes) [%] | metabolised at 0.25 h [2, 7] [%] | metabolised at 0.5 h [2, 8] [%] | metabolised at 1 h [2, 7] [%] | metabolised at 2 h [2, 7] [%] | further results
CCOc1ccccc1OCCN[C@H](C)Cc1cc(C(N)=O)c2c(ccn2CCCOC(=O)C(C)(C)C)c1 [Compound C, (R)-3-[7-Carbamoyl-5-[2-[[2-(2-ethoxyphenoxy)ethyl]amino]-propyl]-1H-indol-1-yl]propyl Pivalate] | – | – | – | – | – | detection of the ester in aqueous humor ([1]; even after 20 minutes): could not be detected in aqueous humor at all even after 20 minutes
CCC(CC)C(=O)OCCCn1ccc2cc(C[C@@H](C)NCCOc3ccccc3OCC(F)(F)F)cc(C(N)=O)c21 [Compound a, (R)-3-[7-Carbamoyl-5-[2-[[2-[2-(2,2,2-trifluoroethoxy)-phenoxy]ethyl]amino]propyl]-1H-indol-1-yl]propyl 2-ethyl-butyrate] | ~12 | – | – | – | – | –
CCC(CC)C(=O)OCCCn1ccc2cc(C[C@@H](C)NCCOc3ccccc3OCC(F)(F)F)cc(C(N)=O)c21 [Compound a] | – | 8.4 | 12 | 12.6 | 25.2 | –
CCCC(=O)N1CCCN(c2nc(N)c3cc(OC)c(OC)cc3n2)CC1 [Bunazosin hydrochloride] | – | – | – | – | – | IC50 [3]: 315 nM
CCCC(C)(C)C(=O)OCCCn1ccc2cc(C[C@@H](C)NCCOc3ccccc3OCC(F)(F)F)cc(C(N)=O)c21 [Compound b] | – | 2.2 | 3.8 | 7.5 | 10.2 | –
CCOc1ccccc1OCCN[C@H](C)Cc1cc(C(N)=O)c2c(ccn2CCCOC(=O)C(C)(C)C)c1.Cl [Compound C hydrochloride, (R)-3-[7-Carbamoyl-5-[2-[[2-(2-ethoxyphenoxy)ethyl]amino]-propyl]-1H-indol-1-yl]propyl Pivalate Hydrochloride] | – | – | – | – | – | fatal rats during 24 hours after administration [4]: Any fatal rats were not observed
C[C@H](Cc1cc(C(N)=O)c2c(ccn2CCCOC(=O)C(C)(C)C)c1)NCCOc1ccccc1OCC(F)(F)F [Compound D] | – | 54.8 | 67.1 | 86.5 | 98.6 | –
CCOc1ccccc1OCCN[C@H](C)Cc1cc(C(N)=O)c2c(ccn2CCCOC(=O)C(C)(C)C)c1 [Compound C] | – | – | – | – | – | concentration at 20 min ([1]; aqueous humor, topical or ocular, 50 ug/eye, 50 μl of 0.1% Compound C hydrochloride instilled, Compounds B and C determined, read-out: Drug concentrations in aqueous humor, 20 minutes after): < 1 ng/mL; concentration at 2 h ([1]; aqueous humor, topical or ocular, 50 ug/eye, 50 μl of 0.1% Compound C hydrochloride instilled, Compounds B and C determined, read-out: Drug concentrations in aqueous humor, 2 hours after): < 1 ng/mL; concentration at 6 h ([1]; aqueous humor, topical or ocular, 50 ug/eye, 50 μl of 0.1% Compound C hydrochloride instilled, Compounds B and C determined, read-out: Drug concentrations in aqueous humor, 6 hours after): < 1 ng/mL
C[C@H](Cc1cc(C(N)=O)c2c(ccn2CCCOC(=O)C(C)(C)c2ccccc2)c1)NCCOc1ccccc1OCC(F)(F)F [Compound c, (R)-3-[7-Carbamoyl-5-[2-[[2-[2-(2,2,2-trifluoroethoxy)-phenoxy]ethyl]amino]propyl]1H-indol-1-yl]propyl α,α-dimethylphenylacetate] | ~2 | – | – | – | – | –
CCCC(C)(C)C(=O)OCCCn1ccc2cc(C[C@@H](C)NCCOc3ccccc3OCC(F)(F)F)cc(C(N)=O)c21 [Compound b, (R)-3-[7-Carbamoyl-5-[2-[[2-[2-(2,2,2-trifluoroethoxy)-phenoxy]ethyl]amino]propyl]-1H-indol-1-yl]propyl 2,2-dimethylvalerate] | ~4 | – | – | – | – | –
